Measured values reported in patent US20260306631A1, “CHIMERIC RECEPTORS” (St. Jude Children's Research Hospital, Inc., priority 2023, published 2026).

Experiments:
[1] = system: Jun.EpoR.del3 (ZipEpoR.del3: cJunzip.hEpoRmut.del3, cJun SEQ ID NO: 9, hEpoRmut SEQ ID NO: 16; 3 amino acid TM domain deletion); experiment: Frequency of pSTAT5+ cells after ruxolitinib treatment, T cells expressing Jun.EpoR.del3 ZipR; format: cell-based; conditions: role: inhibitor; STAT5 phosphorylation (pSTAT5+ cells), human T cells, 48-hour treatment
Source text: (§1) FIGS. 2A-2F show Jun leucine zipper-based homodimers activating STAT5 resulting in improved T cell viability, and that they are inhibited by ruxolitinib. (FIGS. 2A and 2B) pSTAT5 geometric mean fluorescence intensity (FIG. 2A) or percent positive (FIG. 2B) in Jun ZipR+ cells (N=4 biological replicates, One-way ANOVA, ** p<0.01, *** p<0.001, **** p<0.0001). (FIGS. 2C-2E) Frequency of pSTAT5+ cells following 48-hour treatment with indicated concentrations of ruxolitinib in vitro (N=3 biological replicates). (FIG. 2F) Frequency of dead cells (Annexin V+ Dead+), apoptotic cells (Annexin V+ Dead-), necrotic cells (Annexin V− Dead+), and live cells (Annexin V− Dead-) after 7 days of cytokine starvation without or with treatment of 5 M ruxolitinib in vitro (N=2 biological replicates, two-way ANOVA, **** p<0.0001 on Live cell population)
(§2) The following constructs were generated and tested: • i) Jun.IL-2Rβ chain constructs with 0 to 6 alanine insertions to interrogate all potential intracellular orientations; • ii) Jun.EpoR constructs with 0, 1, 3, or 5 amino acid TM domain deletions to interrogate receptors with 0, 100, 300, or 500 degrees of rotation; • iii) Jun. GHR; and • iv) Jun. 18B.MyD88 fused to EpoR or GHR (Jun.MyD88.EpoR or Jun.MyD88.GHR).
(§3) As a potential safety switch for the constitutively active homodimeric ZipRs, T cells expressing Jun.EpoR ZipRs or the Jun. […]

[2] = system: Jun.EpoR ZipRs or the Jun.GHR ZipRs; experiment: Ability of ZipRs to phosphorylate STAT5 under ruxolitinib treatment, T cells expressing Jun.EpoR ZipRs or Jun.GHR ZipR; format: cell-based, human; conditions: role: inhibitor; increasing concentrations of ruxolitinib
Source text: as §1
(§4) As a potential safety switch for the constitutively active homodimeric ZipRs, T cells expressing Jun.EpoR ZipRs or the Jun. GHR ZipRs were treated with increasing concentrations of ruxolitinib, an FDA-approved JAK1/2 inhibitor. All ZipRs were inhibited by ruxolitinib (FIGS. 2C-2E) as judged by their ability to phosphorylate STAT5.
(§5) Generation of ZipR transduced T cells. […]

[3] = system: Jun.GHR (ZipGHR: cJunzip.hGHR, cJun SEQ ID NO: 9, hGHR SEQ ID NO: 20); experiment: Frequency of pSTAT5+ cells after ruxolitinib treatment, T cells expressing Jun.GHR ZipR; format: cell-based; conditions: role: inhibitor; STAT5 phosphorylation (pSTAT5+ cells), human T cells, 48-hour treatment
Source text: as §1, §4, §5

[4] = system: Jun.EpoR.del1 (ZipEpoR.del1: cJunzip.hEpoRmut.del1, cJun SEQ ID NO: 9, hEpoRmut SEQ ID NO: 14; 1 amino acid TM domain deletion); experiment: Frequency of pSTAT5+ cells after ruxolitinib treatment, T cells expressing Jun.EpoR.del1 ZipR; format: cell-based; conditions: role: inhibitor; STAT5 phosphorylation (pSTAT5+ cells), human T cells, 48-hour treatment
Source text: as §1, §2, §3

[5] = system: Jun.EpoR (ZipEpoR: cJunzip.hEpoRmut, cJun SEQ ID NO: 9, hEpoRmut SEQ ID NO: 10); experiment: Frequency of pSTAT5+ cells after ruxolitinib treatment, T cells expressing Jun.EpoR ZipR; format: cell-based; conditions: role: inhibitor; STAT5 phosphorylation (pSTAT5+ cells), human T cells, 48-hour treatment
Source text: as §1, §4, §5

[6] = system: Jun.EpoR.del5 (ZipEpoR.del5: cJunzip.hEpoRmut.del5, cJun SEQ ID NO: 9, hEpoRmut SEQ ID NO: 18; 5 amino acid TM domain deletion); experiment: Frequency of pSTAT5+ cells after ruxolitinib treatment, T cells expressing Jun.EpoR.del5 ZipR; format: cell-based; conditions: role: inhibitor; STAT5 phosphorylation (pSTAT5+ cells), human T cells, 48-hour treatment
Source text: as §1, §2, §3

[7] = system: Jun.EpoR- or Jun.GHR ZipRs expressing human T cells; experiment: T cell survival after 7-day cytokine starvation with concurrent ruxolitinib treatment; format: cell-based; conditions: role: inhibitor, 7 days without cytokines, printed as 5 M in FIG. 2F legend
Source text: as §1
In addition to activation of STAT5, the ability for Jun ZipRs to improve T cell function was determined. Jun.EpoR- or Jun.GHR ZipRs expressing human T cells were cultured without cytokines for 7 days in vitro before quantifying the frequency of live, dead, and dying cells. ZipR signaling allowed cells to survive 7-day cytokine starvation, which was abrogated by concurrent treatment with ruxolitinib (FIG. 2F). […]
Cytokine starvation. […] To quantify apoptosis, cells were labeled with annexin V (BD Biosciences) and eBioscience Fixable viability dye (Invitrogen).

In the case of N#CC[C@H](C1CCCC1)n1cc(-c2ncnc3[nH]ccc23)cn1 [Ruxolitinib, ruxolitinib], the EC50 [1] is reported as 57.2 nM, the “inhibition of ZipRs as judged by their ability to phosphorylate STAT5” value [2] is reported as “inhibited” and the EC50 [3] is reported as 6.3 nM. The EC50 [4] was 483 nM, the EC50 [5] was 668 nM and the EC50 [6] was 94.2 nM. For the same compound, the “survival of 7-day cytokine starvation by ZipR signaling” value [7] was “abrogated”.
